The record followed here is patent US4863905A, “Renin inhibitors II” (Warner-Lambert Company, priority 1987, dated 1989).

The first experiment has as its target T1, renin (Homo sapiens, UniProt P00797).
T1 sequence (P00797 67-406): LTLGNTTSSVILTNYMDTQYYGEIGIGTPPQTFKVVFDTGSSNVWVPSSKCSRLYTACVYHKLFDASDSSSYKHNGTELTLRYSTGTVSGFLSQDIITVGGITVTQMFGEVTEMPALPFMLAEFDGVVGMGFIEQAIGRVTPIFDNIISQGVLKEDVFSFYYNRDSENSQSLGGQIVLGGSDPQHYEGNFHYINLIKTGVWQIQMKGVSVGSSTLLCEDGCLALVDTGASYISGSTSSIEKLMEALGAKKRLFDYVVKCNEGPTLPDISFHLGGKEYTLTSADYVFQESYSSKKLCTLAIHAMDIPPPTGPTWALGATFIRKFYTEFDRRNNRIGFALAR
Put plainly: in vitro renin inhibitory activity, radioimmunoassay for angiotensin I. The format is biochemical. The note with it: renin incubated two hours at 37° with substrate angiotensinogen; angiotensin I by radioimmunoassay; molar concentration causing 50% inhibition. As to the method: The effectiveness of the aforementioned compound is determined by a test for in vitro renin inhibitory activity. This activity is determined by a standard radioimmunoassay for angiotensin I. In this assay the enzyme, renin, incubated for two hours at 37° in the presence of a substrate, angiotensinogen, generates the product, angiotensin I. Test compounds are added to the incubation mixture. Relative activity is reported as the IC50, which is the molar concentration of test compound causing a 50% inhibition of the renin activity.
In turn, “DNMA--HIS--CYCLOHEXYLALA[CHOHCH2 ](CH2)2 CH(CH3)2 [Example 5]” registered an IC50 of 1800 nM.

For the substance “DNMA--HIS--CYCLOHEXYLALA[CHOHCH2 ]GLY--LEU--NHCH2 Ph [Example 11]”, 6400 nM corresponded to half-maximal inhibition (IC50).

The substance “DNMA--HIS--CYCLOHEXYLALA[CHOHCH2 ]GLY--NHCH2 CH(CH3)--CH2 CH3 [Example 16]” showed an IC50 of 250 nM.

Consider “DNMA--HIS--CYCLOHEXYLALA[CHOHCH2 ]GLY--NHCH2 Ph [Example 17]”, for which it took 3400 nM to reach half-maximal inhibition (IC50). Same read-out and setting: under “DNMA--HIS--CYCLOHEXYLALA[CHOHCH2 ]LEU--NHCH2 CH(CH3)--CH2 CH3 [Example 15]” stands 170 nM. In turn, “DNMA--HIS--CYCLOHEXYLALA[CHOHCH2 ]LEU--NHCH2 Ph [Example 14]” gave an IC50 of 4400 nM. Take “DNMA--HIS--CYCLOHEXYLALA[CHOHCHOH]CH2 OH [Example 7]”: the IC50 was 280 nM. In turn, “DNMA--HIS--LEU[CHOHCH2 ]SO2 NHCH2 CH2 Ph [Example 1]” registered an IC50 of 12000 nM. “DNMA--HIS--STA[CH2 NH]CH2 CH(CH3)CH2 CH3 [Example 10]” yielded an IC50 of 8700 nM. In turn, “DNMA--HIS--STA[CH2 SO2 ](CH2)3 CH3 [Example 4]” came in with an IC50 of 160 nM. “DNMA--HIS--STA[CHOHCH2 ]CH2 Ph [Example 18]” registered an IC50 of 12000 nM. On the same count and under the same terms, under “DNMA--HIS[CH2 NH]STA--NHCH2 CH(CH3)CH2 CH3 [Example 8]” stands 16000 nM; under “DNMA[CHOHCH2 ]LEU--STA--NHCH2 CH(CH3)CH2 CH3 [Example 20]”, 1900 nM.

Staying with this experiment, now noted: renin incubated two hours at 37° with substrate angiotensinogen; angiotensin I by radioimmunoassay; molar concentration causing 50% inhibition; listed as DNMAHIS STA[CHOHCH2 ]CH2 Ph (ISOMER).
Regarding “DNMA--HIS--STA[CHOHCH2 ]CH2 Ph [Example 19]”, the 50% inhibitory concentration (IC50) came to 1400 nM.
